Source: patent publication US20140179664A1, “Heterocyclyl Pyrimidine Analogues As JAK Inhibitors” (Cellzome Limited, priority 2011, published 2014)

Columns and labels:
[1] = tested on: STAT5 phosphorylation downstream of JAK3 in human YT cells; experiment: pSTAT5 cell assay (IL-2 stimulated YT cells, AlphaScreen); format: cell-based; conditions: IL-2 stimulation, read-out: Inhibition values (IC50) pSTAT5
Source text: STAT5 phosphorylation represents one of the proximal events in the signalling cascade downstream of JAK3 activation. Therefore STAT5 phosphorylation is an appropriate readout to assess the mechanistic effect of JAK3 inhibition. Stimulation of human YT cells, an NK-like cell line, with interleukin-2 (IL-2) results in phosphorylation of STAT5 at tyrosine residue 694 (Tyr694) that can be quantitatively measured by immunodetection with specific antibodies and an appropriate detection method, in this case AlphaScreen assay technology.
Human YT cells were grown in RPMI medium (Lonza, BE12-167) with 2 mM L-Glutamine (Invitrogen, 25030-024) and 10% heat-inactivated FBS (Invitrogen, 10106-169) and kept in a humidified incubator (37° C., 5% CO2). Cells were harvested by centrifugation, washed once with HBSS (Invitrogen, 14180-046), resuspended in HBSS at 1.5×10^6 cells/ml and 0.9×10^4 cells were seeded in 6 μl per well in a 96 well White plate (PerkinElmer, 6005569).
Test compounds were dissolved in DMSO and a 1:3 dilution series (9 steps) was prepared. To generate a dose response curve, 3 μl of fourfold concentrated compound in 4% DMSO/HBSS were added to each cell sample in the 96 well plate resulting in a final DMSO concentration of 1% DMSO. Cells were incubated for one hour in a humidified incubator (37° C., 5% CO2). To each well 3 μl of a fourfold concentrated IL-2 solution (Recombinant human IL-2, Peprotech 200-02; 120 nM solution in HBSS) was added and incubated for 30 minutes at room temperature. Cells were lysed by adding 3 μl of 5× lysis buffer (SureFire lysis buffer; Perkin Elmer, TGRS5S10K) and incubated for 10 minutes at room temperature with gentle shaking
For signal detection by AlphaScreen® technology the SureFire phospho-STAT5 (Tyr694/Tyr699) kit was used according to instructions provided by the manufacturer (Perkin Elmer, TGRS5S10K). Acceptor beads were added as recommended by the manufacturer (Reactivation buffer/Activation buffer/Acceptor beads at a ratio of 40:10:1) and incubated at room temperature for 1.5 hours with gentle shaking Then donor beads were added as recommended (Dilution buffer/Donor beads at a ratio of 20:1) and incubated at room temperature for 1.5 hours with gentle shaking Plates were read on an Envision instrument (Perkin Elmer) with the AlphaScreen protocol. Data were analysed in BioAssay using the nonlinear regression for a sigmoidal dose-response with a variable slope.

JAK1 = biological target: T1, JAK1 (Homo sapiens, UniProt P23458); experiment: Kinobeads assay, JAK1; format: binding; conditions: mixed Molt4/Ramos lysate, read-out: Inhibition values (IC50) JAK1
T1 construct: endogenous in cells; host or cells: Molt4 (ATCC CRL-1582) and Ramos (ATCC CRL-1596), mixed lysate 1:2
How it was run: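 Competitive pulldown in combined Molt4 and Ramos lysates (1 vs 2 volumes): compound, as a nine-point 1:3 series, and kinobeads were shaken together for 3 hours in a cold room. Captured JAK1 was quantified on an infrared-read antibody dot blot and IC50 calculated. Controls held 2% DMSO without compound.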

T1 sequence (P23458 whole entry): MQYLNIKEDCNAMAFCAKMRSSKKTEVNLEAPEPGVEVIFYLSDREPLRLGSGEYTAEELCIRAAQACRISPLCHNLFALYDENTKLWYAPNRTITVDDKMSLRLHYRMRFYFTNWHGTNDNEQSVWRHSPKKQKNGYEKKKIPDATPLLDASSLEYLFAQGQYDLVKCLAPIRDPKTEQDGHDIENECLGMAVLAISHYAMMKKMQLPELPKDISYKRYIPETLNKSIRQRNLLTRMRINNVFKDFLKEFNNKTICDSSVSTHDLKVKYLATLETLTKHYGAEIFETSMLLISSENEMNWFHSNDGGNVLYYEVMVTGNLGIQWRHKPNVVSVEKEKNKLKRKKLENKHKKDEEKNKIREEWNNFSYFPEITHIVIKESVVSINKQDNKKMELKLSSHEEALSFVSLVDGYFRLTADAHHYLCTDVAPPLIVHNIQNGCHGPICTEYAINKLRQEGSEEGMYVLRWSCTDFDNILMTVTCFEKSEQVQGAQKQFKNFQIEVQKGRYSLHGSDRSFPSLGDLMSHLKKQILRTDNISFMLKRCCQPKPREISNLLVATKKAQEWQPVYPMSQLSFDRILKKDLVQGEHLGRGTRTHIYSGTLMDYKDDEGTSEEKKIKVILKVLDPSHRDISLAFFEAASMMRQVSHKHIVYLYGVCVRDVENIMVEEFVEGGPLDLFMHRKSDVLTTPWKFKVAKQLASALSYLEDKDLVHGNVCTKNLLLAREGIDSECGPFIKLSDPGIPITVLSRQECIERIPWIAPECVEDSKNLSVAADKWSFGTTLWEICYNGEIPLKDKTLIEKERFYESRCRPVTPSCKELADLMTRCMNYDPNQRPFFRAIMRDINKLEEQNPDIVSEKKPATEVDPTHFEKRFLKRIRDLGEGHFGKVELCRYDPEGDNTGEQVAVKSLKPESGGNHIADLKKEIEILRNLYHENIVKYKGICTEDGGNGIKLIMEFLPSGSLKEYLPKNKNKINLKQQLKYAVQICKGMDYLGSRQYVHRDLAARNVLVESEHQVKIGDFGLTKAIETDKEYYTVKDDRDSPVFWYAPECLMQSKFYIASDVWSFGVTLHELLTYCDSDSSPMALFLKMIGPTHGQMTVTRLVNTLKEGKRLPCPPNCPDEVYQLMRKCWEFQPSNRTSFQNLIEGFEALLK

SMILES | IC50 [1] [nM] | IC50 (JAK1) [nM]
NC(=O)Cn1cc(Nc2ncc(Cl)c(N[C@H](CO)c3ccccc3F)n2)cn1 [Compound 78] | < 250 | < 100
CC(C)NC(=O)Cn1cc(Nc2ncc(Cl)c(N[C@H](CO)c3ccccc3)n2)cn1 [Compound 67] | 250 to 1000 | 100 to 1000
OC[C@@H](Nc1nc(Nc2cn[nH]c2)ncc1Cl)c1ccccc1 [Compound 75] | 250 to 1000 | 1000 to 10000
CN(C)C(=O)Cn1cc(Nc2ncc(Cl)c(N[C@H](CO)c3ccccc3)n2)cn1 [Compound 30] | 250 to 1000 | 100 to 1000
O=C(Cn1cc(Nc2ncc(Cl)c(N[C@H](CO)c3ccccc3)n2)cn1)NC1CC1 [Compound 68] | 250 to 1000 | 100 to 1000
CNC(=O)Cn1cc(Nc2ncc(Cl)c(N[C@H](CO)c3ccccc3)n2)cn1 [Compound 23, (S)-2-(4-((5-chloro-4-((2-hydroxy-1-phenylethyl)amino)pyrimidin-2-yl)amino)-1H-pyrazol-1-yl)-N-methylacetamide] | 250 to 1000 | 100 to 1000
